# From ChEMBL document CHEMBL5104092, “An insight into the recent development of the clinical candidates for the treatment of malaria and their target proteins” (Eur J Med Chem, 2021)
# Experiments:
# [1] = tested on: Plasmodium falciparum; experiment: Antimalarial activity against Plasmodium falciparum assessed as increase in parasite swelling diameter at ring stage after 2 hrs by time-lapse live cell imaging (reference value: […]); type: functional
# [2] = tested on: Plasmodium falciparum; experiment: Antimalarial activity against chloroquine-sensitive Plasmodium falciparum 3D7 by Giemsa staining method; type: functional, organism-based
# [3] = Drug elimination in human urine assessed as unchanged fraction; type: ADME; conditions: read-out: Drug excretion
# [4] = Dissociation constant, pKa of compound; type: physicochemical
# [5] = tested on: Plasmodium falciparum; experiment: Antimalarial activity against Plasmodium falciparum K1; type: functional, organism-based
# [6] = tested on: Plasmodium falciparum; experiment: In vivo antimalarial activity against Plasmodium falciparum infected in SCID mouse; type: functional
# [7] = tested on: Plasmodium falciparum; experiment: Antimalarial activity against Plasmodium falciparum NF54; type: functional, organism-based
# [8] = tested on: Plasmodium falciparum; experiment: Antiplasmodial activity against chloroquine sensitive Plasmodium falciparum NF54 by parasite lactate dehydrogenase assay; type: functional, organism-based
# [9] = tested on: Plasmodium yoelii; experiment: In vivo antimalarial activity against Plasmodium yoelii infected in mouse; type: functional
# [10] = tested on: HepG2; experiment: Cytotoxicity against human HepG2 cells; type: functional, cell-based
# [11] = tested on: Plasmodium falciparum; experiment: Antimalarial activity against Plasmodium falciparum Dd2; type: functional, organism-based
# [12] = tested on: Plasmodium falciparum; experiment: Antimalarial activity against chloroquine-sensitive Plasmodium falciparum W2 assessed as parasitic LDH activity incubated for 72 hrs by malstat reagent method; type: functional, organism-based; conditions: W2, 72 h
# [13] = tested on: Plasmodium falciparum; experiment: Antimalarial activity against chloroquine-sensitive Plasmodium falciparum D6 assessed as parasitic LDH activity incubated for 72 hrs by malstat reagent method; type: functional, organism-based; conditions: D6, 72 h
# [14] = Cytotoxicity against African green monkey Vero cells; type: toxicity, cell-based, Chlorocebus sabaeus
# [15] = Inhibition of Plasmodium falciparum recombinant DHODH incubated for 5 mins by microplate reader method
# [16] = tested on: Plasmodium falciparum; experiment: Antimalarial activity against Plasmodium falciparum 3D7; type: functional, organism-based
# [17] = molecular target: Voltage-gated inwardly rectifying potassium channel KCNH2 (Homo sapiens, UniProt Q12809); experiment: Inhibition of human ERG; type: toxicity
# [18] = Inhibition of Plasmodium falciparum DHODH
# [19] = tested on: Plasmodium falciparum; experiment: Antimalarial activity against chloroquine resistant Plasmodium falciparum Dd2 incubated for 48 hrs by SYBR green I fluorescence based assay; type: functional, organism-based; conditions: Dd2, 48 h
# [20] = tested on: Plasmodium falciparum; experiment: Antimalarial activity against chloroquine resistant Plasmodium falciparum K1 incubated for 48 hrs by SYBR green I fluorescence based assay; type: functional, organism-based; conditions: K1, 48 h
# [21] = tested on: Plasmodium falciparum; experiment: Antimalarial activity against chloroquine resistant Plasmodium falciparum W2 incubated for 48 hrs by SYBR green I fluorescence based assay; type: functional, organism-based; conditions: W2, 48 h
# [22] = tested on: Plasmodium falciparum; experiment: Antimalarial activity against chloroquine sensitive Plasmodium falciparum NF54 incubated for 48 hrs by SYBR green I fluorescence based assay; type: functional, organism-based; conditions: NF54, 48 h
# [23] = tested on: Plasmodium yoelii; experiment: In vivo antimalarial activity against chloroquine resistant Plasmodium yoelii N-67 infected in Swiss albino mouse assessed as suppression of parasitemia at 10 mg/kg relative to control; type: functional
# [24] = tested on: L6; experiment: Cytotoxicity against rat L6 cells; type: functional, cell-based
# [25] = tested on: Plasmodium berghei; experiment: In vivo antimalarial activity against Plasmodium berghei infected in Balb/C mouse model assessed as parasite clearance at 30 mg/kg, po administered every 24 hrs for 3 days followed by chloroquine addition measured on day 4 by flow cytometric analysis relative to control; type: functional; conditions: time 4 day
# [26] = tested on: Plasmodium yoelii nigeriensis; experiment: In vivo antimalarial activity against Plasmodium yoelii nigeriensis infected in Swiss mouse; type: functional
# [27] = Inhibition of Plasmodium falciparum DHODH expressed in Escherichia coli BL21 (DE3) cells by DCIP staining method
# Voltage-gated inwardly rectifying potassium channel KCNH2, sequence (Q12809 whole entry): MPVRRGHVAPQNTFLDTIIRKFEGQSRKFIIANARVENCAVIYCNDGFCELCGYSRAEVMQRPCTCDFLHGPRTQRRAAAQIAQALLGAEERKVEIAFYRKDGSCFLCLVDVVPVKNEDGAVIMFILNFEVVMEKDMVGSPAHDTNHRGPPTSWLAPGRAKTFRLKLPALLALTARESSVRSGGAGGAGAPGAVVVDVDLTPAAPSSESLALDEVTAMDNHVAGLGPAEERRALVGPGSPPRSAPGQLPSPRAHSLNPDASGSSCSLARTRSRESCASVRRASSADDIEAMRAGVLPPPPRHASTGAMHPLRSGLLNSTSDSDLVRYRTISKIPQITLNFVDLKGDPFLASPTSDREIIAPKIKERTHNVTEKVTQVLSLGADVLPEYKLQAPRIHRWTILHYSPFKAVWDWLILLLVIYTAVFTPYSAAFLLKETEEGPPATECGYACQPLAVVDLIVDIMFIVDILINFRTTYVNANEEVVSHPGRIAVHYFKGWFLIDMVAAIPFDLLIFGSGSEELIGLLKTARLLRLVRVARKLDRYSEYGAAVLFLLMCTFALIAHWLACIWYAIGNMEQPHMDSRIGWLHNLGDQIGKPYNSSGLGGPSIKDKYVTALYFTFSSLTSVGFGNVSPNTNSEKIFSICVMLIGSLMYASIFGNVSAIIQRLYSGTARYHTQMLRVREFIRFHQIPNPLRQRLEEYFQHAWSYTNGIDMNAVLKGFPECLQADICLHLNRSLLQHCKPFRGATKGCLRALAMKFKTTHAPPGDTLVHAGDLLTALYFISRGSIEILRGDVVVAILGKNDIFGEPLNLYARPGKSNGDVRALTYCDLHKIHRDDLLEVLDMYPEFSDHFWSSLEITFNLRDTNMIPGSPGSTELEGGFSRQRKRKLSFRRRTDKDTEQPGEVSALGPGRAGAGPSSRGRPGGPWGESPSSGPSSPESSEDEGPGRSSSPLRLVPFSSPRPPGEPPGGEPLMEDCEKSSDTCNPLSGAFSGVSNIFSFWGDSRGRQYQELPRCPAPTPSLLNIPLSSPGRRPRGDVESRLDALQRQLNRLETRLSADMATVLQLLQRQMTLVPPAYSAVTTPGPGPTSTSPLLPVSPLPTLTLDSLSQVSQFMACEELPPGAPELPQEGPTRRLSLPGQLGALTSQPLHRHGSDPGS
structure (smiles),measurement,setting,value
CC(C)c1nc2ccccc2n1CC(=O)Nc1c(-c2ccc(Cl)cc2F)c(C(F)(F)F)nn1C,Activity,[1],4.6 µm
CNNc1nc(NNC)nc(Nc2nc(-c3ccc(Cl)cc3Cl)cs2)n1,IC50,[2],10 µg/mL
COc1cc(NCCCC(C)N)c2ncccc2c1 (stereo unspecified) [QUINOCIDE],dose excreted,[3],< 1%
CC(=O)N1CCN(c2ccc(CN(C(=O)/C=C/c3ccc(C(C)(C)C)cc3)[C@@H](Cc3ccccc3)C(=O)N3CCN(Cc4ccc(C#N)cc4)CC3)cc2)CC1,pKa,[4],6.8
same,IC50,[5],0.3 nM
same,ED90,[6],3.7 mg/kg
same,IC50,[7],0.4 nM
O=C(c1ccc(OC[C@H](O)Cn2ncnn2)cc1)N1CC[C@H](c2ccc(F)cc2)C1,pKa,[4],12.6
c1cc([C@H]2CC[C@]3(CC2)OO[C@]2(O3)C3CC4CC(C3)CC2C4)ccc1OCCN1CCOCC1 [ARTEFENOMEL],pKa,[4],7
same,IC50,[5],3.8 nM
same,IC50,[7],4.6 nM
CCOC(=O)C(=CNc1cccc(N(C)C)c1)C(=O)OCC,IC50,[8],26000 nM
COc1cc2[nH]c(C)c(-c3ccc(Oc4ccc(OC(F)(F)F)cc4)cc3)c(=O)c2cc1Cl,ED90,[9],0.02 mg/kg
same,IC50,[10],> 10000 nM
same,EC50,[11],2.5 nM
c1cc(N2CCOCC2)nc(NCCNc2nc(N3CCOCC3)nc(N3CCOCC3)n2)n1,IC50,[12],1320 nM
same,IC50,[13],1180 nM
same,IC50,[14],> 10100 nM
CC(C)(C)c1cc(O)c(CN)c(C(C)(C)C)c1,pKa,[4],7.2
same,IC50,[5],9.6 nM
same,IC50,[7],91.5 nM
c1c2c(cc3c1OCO3)-c1cc3ccc4c(c3c[n+]1CC2)OCO4 [COPTISINE],IC50,[15],1830 nM
COc1ccc(NC(=O)N2CCCCN3[C@H](CN(C)C)[C@H](c4ccc(C#Cc5ccccc5)cc4)[C@@H]3C2)cc1,pKa,[4],5
same,CC50,[10],9000 nM
same,EC50,[11],3 nM
same,EC50,[16],9 nM
same,IC50,[17],2100 nM
NN1CN(c2ccc3ccccc3c2)C2=C(C(=O)CO2)C1=O,IC50,[18],23 nM
COc1cc(NCCCCCNC(C)C)c2ncccc2c1 [PENTAQUINE],dose excreted,[3],< 1%
C[C@H]1[C@H](N2CCNCC2)O[C@@H]2O[C@]3(C)CC[C@H]4[C@H](C)CC[C@@H]1[C@@]24OO3,IC50,[19],1.7 nM
same,IC50,[20],1.9 nM
same,IC50,[21],1.4 nM
same,IC50,[22],3.1 nM
COC(=O)N1CCN(C(=N)c2cccc(NC(=O)Nc3ccc(S(=O)(=O)NCc4ccc(S(N)(=O)=O)cc4)cc3)c2)CC1,EC50,[5],5 nM
same,EC50,[7],2 nM
CC(C)C[C@@H](CN1CCN(C)CC1)Nc1ccnc2cc(Cl)ccc12.Cl,Activity,[23],100%
CC(=O)N1CCN(c2ccc(CN(C(=O)/C=C/c3ccc(C(F)(F)F)cc3)[C@@H](Cc3ccccc3)C(=O)N3CCN(Cc4ccc(N(C)CCO)cc4)CC3)cc2)CC1,pKa,[4],7.5
same,IC50,[5],0.46 nM
same,ED90,[6],8.4 mg/kg
same,IC50,[7],10 nM
same,IC50,[24],8850 nM
CN1CCN(c2nc(Cl)cc(NCCNc3ccnc4cc(Cl)ccc34)n2)CC1,Activity,[25],93.9%
C=C(c1ccc(OC(C)(C)COC(=O)CCC(=O)O)cc1)C1COC2(OO1)C1CC3CC(C1)CC2C3 (stereo unspecified),pKa,[4],4
same,ED90,[26],18.3 mg/kg
same,IC50,[16],49 nM
COC(=O)[C@]1(C)C[C@H](c2ccccc2)N2[C@@H](C)CC(=O)N21,IC50,[27],2900 nM
